{"source": "patent US20040235717A1", "about": "“Suppression of androgen receptor transactivation through new pathways to ar and ar coactivators and repressors” (priority 2001, published 2004)", "key": {"PI3K": {"system": "PI3K", "experiment": "PI3K activity assay using phosphatidylinositol as substrate", "format": "cell-based, human", "conditions": "LNCaP", "description": "(§1) 251. IL-6's effect on PI3K activity was tested. After serum starvation for 24 h, LNCaP, PC-3 or DU145 cells were treated with 50 μg/ml IL-6 for 30 minutes. The cells were then harvested. PI3K activity was measured by using phosphatidylinositol (PT) as a substrate. […] The transactivation was measured by CAT activity.\n260. […] PI3K activity was measured using PI as a substrate.\n265. PI3K activity was determined as previously described. Vlahos, C. J. et al, J. Biol. Chem. 269, 5241-5148 (1994)."}, "LNCaP cells": {"system": "LNCaP cells", "experiment": "DHT/TPA-induced apoptosis in LNCaP cells, TUNEL assay", "format": "cell-based", "conditions": "for LNCaP cell apoptosis, agent per se: 10 nM DHT or 1 nM TPA alone", "description": "(§2) 18. […] (A) Akt suppressed androgen/AR-induced p21 promoter activity. […] (B) Androgen/AR-induced PC-3(AR)6 apoptosis and p21 protein expression was blocked by Akt PC-3(AR)6 was transfected with pCDNA3, cAkt, or dAkt, as indicated, for 16 h. […] (C) AR-induced p21 protein expression was enhanced by dAkt in LNCaP cells. […] LNCaP stable transfection with dAkt was confirmed by western blot assay using phospho-Akt (Ser473) antibody. […] TPA was then added for another 24 h and cell apoptosis was determined by TUNEL assay. […] IGF-1 was added for another 30 min, followed by 10 nM TPA treatment for another 24 h. The apoptosis was determined by TUNEL assay. The data are means±s.d. from three independent experiments.\n(§3) 281. The TUNEL assay was performed to measure the cell apoptosis according to the standard procedures (Oncogene Research Products). At least 200 cells were scored for each sample and the data are means±s.d. from three independent experiments."}, "PSA mRNA expression": {"system": "PSA mRNA expression", "experiment": "PSA mRNA expression in LNCaP cells, Northern blot", "format": "cell-based"}, "IL-6 protein expression": {"system": "IL-6 protein expression", "experiment": "IL-6 secretion by LNCaP cells (ELISA)", "format": "cell-based", "description": "11. […] IL-6 secretion in the medium was determined by ELISA. […] LNCaP cells, were serum starved for 24 h. […] PI3K activity was measured using PI as a substrate. The origin (ori) of the chromatogram and PI3-phosphate (PI3P) were indicated.\n259. […] The IL-6 protein level in the supernatants was then evaluated by BLISA."}, "[1]": {"system": "wtAR, mtARt877a, PR, VDR, ER transactivation", "experiment": "Steroid receptor transactivation with Smad3 in DU145 cells (wtAR, mtARt877a, PR, VDR, ER)", "format": "cell-based, human", "conditions": "for wtAR transactivation response to ligand: DHT 10 nM, HF 1 μM, E2 10 nM"}, "p21 expression": {"system": "p21 expression", "experiment": "p21 promoter activity (luciferase) and p21 protein expression", "format": "cell-based", "conditions": "PC-3 cells; 10 nM DHT", "description": "as §2"}, "[2]": {"system": "PC-3(AR)2, PC-3(AR)6, SAR-91 cells", "experiment": "Androgen/AR-induced apoptosis, TUNEL assay in PC-3(AR)2, PC-3(AR)6 and SAR-91 cells", "format": "cell-based", "conditions": "HF 5 μM, IGF-1 100 ng/ml, DHT 10 nM, 3 days", "from_the_text": "17. […] (A) PC-3(AR)2 and PC-3(AR)6 expressed AR protein. PC-3 cells were stably transfected with AR, followed by selection with hygromycin B, and confirmed by western blotting using AR antibody NH27, while LNCaP was used as a positive control. (B) Androgen/AR-induced apoptosis in PC-3(AR)2, PC-3(AR)6, and SAR-91 were inhibited by PI(3)K/Akt pathway. […] The data are means±s.d. from three independent experiments.\nas §2, §3"}, "AR transactivation [3]": {"system": "AR transactivation", "experiment": "AR transactivation with TSA, MMTV-LUC in PC3-AR2 cells", "format": "cell-based"}, "Akt / AR phosphorylation": {"system": "Akt / AR phosphorylation", "experiment": "Akt activation and in vivo AR phosphorylation in COS-1 cells", "format": "cell-based", "description": "14. […] COS-1 cells were pretreated with ethanol or 20 μM LY294002 for 30 min, followed by treatment with 100 ng/ml IGF-1 for 30 min. The total cell lysates were immunoprecipitated by anti-Akt antibody (New England Biolabs). The immunocomplex was subjected to SDS-PAGE, followed by immunoblot with phospho-Akt (S473) antibody or Akt antibody. (B) IGF-1 phosphorylates AR in vivo via Akt. COS-1 cells were cultured in [^32P]-PO4-containing medium. AR immunocomplex was subjected to SDS-PAGE followed by autoradiography. Immunobloting confirmed equivalent amounts of AR in immunocomplex. (C) cAkt, but not dAkt, phosphorylates wtAR, but not mtAR S210A and mtAR S790A in vivo. COS-1 cells were transfected with wtAR, mtAR S210A, or mtAR S790A in combination with PCDNA3 vector, cAkt, or dAkt. After 24 h transfection, cells were labeled with [^32P]-PO4 for 4 h. (D) Suppression of AR transactivation by Akt in a dose-dependent manner. […] Transactivation was measured by CAT activity using MMTV-CAT as a reporter. (E) mtAR S210A is resistant to Akt suppressive effect on AR transactivation. DU145 cells were transfected with plasmids encoding wtAR, mtAR S210A or mtAR S790A in presence of cAkt or dAkt for 24 h. Ligand treatment and AR transactivation were performed as previously described. The data are means±s.d. from three independent experiments.\n282. […]"}, "AR transactivation [4]": {"system": "AR transactivation", "experiment": "AR transactivation, MMTV-CAT reporter in DU145 cells transfected with AR", "format": "cell-based, human", "from_the_text": "250. To dissect the divergent effects of IL-6 in prostate tumor growth, Qui, Y. et al., Nature 393, 83-85 (1998); Hobisch, A. et al., Cancer Res. 58, 4640-4645 (1998); Ritchie, C. K. et al., Endocrinology 138, 1145-1150 (1997), the potential influences of IL-6 on the transactivation of AR, the master regulator of the prostate tumor growth were studied. Chang, C. et al., Science 240, 324.326 (1988); Chang, C. et al., Crit. Rev. Eukaryotic Gene Expression 5, 97-125 (1995). Because IL-6 has two major signal cascades, mitogen-activated protein kinase (MAPK) and phosphatidylinositol 3-kinase (PI3K), Qui, Y. et al., Nature 393, 83-85 (1998); Qui, Y. et al., Proc. Natl. Acad. Sci. USA 95, 3644-3649 (1998), inhibitors were applied to specifically block one of these two IL-6 signal pathways. DU145 cells were transfected for 24 h with AR and MMTV-CAT reporter gene. After transfection, the cells were serum starved for 24 h. Next, 20 μM LY294002, P098059 or vehicle was added to serum-free medium 30 min prior to IL-6 treatment. […] The cells were then harvested and AR transactivation was measured by CAT activity. […] Vlahos, C. J. et al., J. Biol. Chem. 269, 5241-5148 (1994). […] Alessi, D. R. et al., J. Biol. Chem. 270, 27489-27494 (1995).\nas §1\n252. Focus then turned to the two major downstream effectors of PI3K: a serine/threonine kinase (Akt/PKB) and a ribosomal S6 kinase (p70S6k). Franke, T. F. et al., Cell 88,435-437 (1997). […] The transactivation activity was determined after 24 h transfection.\n262. The DU145 and PC-3 cells were maintained in Dulbecco's Minimum Essential Medium (DMEM) containing penicillin (25 μg/m1), streptomycin (25 μg/ml), and 5% fetal calf serum (FCS). The LNCaP cells were maintained in RPMI-1640 with 10% FCS. Transfections were performed using the calcium phosphate precipitation method, as previously described. Yeh, S. et al., Proc. Natl. Acad. Sci. USA 93, 5517-5521(1996).\n277. The DU145 and PC-3 cells were maintained in Dulbecco's Minimum Essential Medium (DMEM) containing penicillin (25 U/ml), streptomycin (25 μg/ml), and 5% fetal calf serum (FCS). The LNCaP cells were maintained in RPMI-1640-10% FCS. Transfections were performed using the calcium phosphate precipitation method in PC-3 and DU145, as previously described. Yeh, S., Lin, H. K., Kang, H. Y., Thin, T. H., Lin, M. F. & Chang, C. (1999) Proc Natl Acad Sci U S A 96, 5458-63. LNCaP cells were transfected using SuperFect™ according to standard procedures (Qiagen)."}, "AR transactivation [5]": {"system": "AR transactivation", "experiment": "AR transactivation, MMTV-luc / (ARE)4-luc luciferase reporter assay", "format": "cell-based", "conditions": "LNCaP MMTV-luc and CWR22 (ARE)4-luc"}, "AR protein levels": {"system": "AR protein levels", "experiment": "AR protein (Western blot) and AR mRNA (Northern blot) levels", "format": "cell-based", "conditions": "LNCaP, transfected"}}, "note": "“Also recorded” adds a separate entry of the source.", "data": [{"molecule": "C[C@]12CCC(=O)C[C@@H]1CC[C@@H]1[C@@H]2CC[C@]2(C)[C@@H](O)CC[C@@H]12", "note": "[DHT, 5α-dihydrotestosterone, reference compound]", "values": [{"measurement": "IL-6-induced PI3K activity", "setting": "PI3K; DHT and IL-6 for 30 min", "value": "repress PI3K activity significantly"}, {"measurement": "LNCaP cell apoptosis, agent per se", "setting": "LNCaP cells", "value": "only marginal effects on apoptosis"}, {"measurement": "PSA mRNA expression", "setting": "PSA mRNA expression; 10 nM DHT", "value": "induced PSA mRNA expression; also recorded: increases PSA mRNA expression"}, {"measurement": "IL-6 protein expression", "setting": "IL-6 protein expression; 0, 1, 10 or 50 nM DHT 24 h, then 160 nM PMA 24 h", "value": "reduced by DHT in a dose-dependant manner"}, {"measurement": "wtAR transactivation response to ligand", "setting": "[1]", "value": "responded well"}, {"measurement": "p21 promoter activity", "setting": "p21 expression", "value": "induce p21 promoter activity"}]}, {"molecule": "CC(C)(O)C(=O)Nc1ccc([N+](=O)[O-])c(C(F)(F)F)c1", "note": "[HF, hydroxyflutamide]", "values": [{"measurement": "Effect on DHT/TPA-induced apoptosis", "setting": "LNCaP cells; LNCaP parent cells", "value": "repress this DHT/TPA-mediated apoptosis"}, {"measurement": "Effect on Smad3-enhanced PSA induction", "setting": "PSA mRNA expression", "value": "partially repressed"}, {"measurement": "Effect on DHT repression of IL-6 protein expression", "setting": "IL-6 protein expression", "value": "reverse this induction"}, {"measurement": "mtARt877a transactivation response to ligand", "setting": "[1]", "value": "responded much better"}, {"measurement": "wtAR transactivation response to ligand", "setting": "[1]", "value": "respond marginally"}, {"measurement": "Effect on androgen-induced apoptosis", "setting": "[2]", "value": "inhibition of androgen-induced apoptosis"}]}, {"molecule": "CCCC(=O)[O-].[Na+]", "note": "[NaB]", "values": [{"measurement": "Effect on Smad3/Smad4-suppressed AR transactivation", "setting": "AR transactivation [3]", "value": "reverse Smad3/Smad4-repressed AR transactivation"}]}, {"molecule": "CCCCCCCCCCCCCC(=O)O[C@@H]1[C@@H](C)[C@@]2(O)[C@@H](C=C(CO)C[C@]3(O)C(=O)C(C)=C[C@@H]23)[C@H]2C(C)(C)[C@]12OC(C)=O", "note": "[TPA, 12-0-tetradecanoyl phorbol-13-acetate]", "values": [{"measurement": "LNCaP cell apoptosis, agent per se", "setting": "LNCaP cells", "value": "only marginal effects on apoptosis"}]}, {"molecule": "IGF-1: insulin-like growth factor-1", "values": [{"measurement": "Effect on DHT/TPA-induced apoptosis", "setting": "LNCaP cells; LNCaP cells stably transfected with dAkt", "value": "only marginal suppressive effects"}, {"measurement": "Effect on DHT/TPA-induced apoptosis", "setting": "LNCaP cells; LNCaP parent cells", "value": "partially repressed DHT/TPA-induced apoptosis"}, {"measurement": "Akt activation (phospho-Akt S473)", "setting": "Akt / AR phosphorylation; 100 ng/ml IGF-1 30 min", "value": "Activation of Akt"}, {"measurement": "AR phosphorylation in vivo", "setting": "Akt / AR phosphorylation; [32P] labeling", "value": "strongly induced AR phosphorylation"}, {"measurement": "Effect on androgen-induced apoptosis", "setting": "[2]", "value": "repress androgen-induced apoptosis"}]}, {"molecule": "IL-6: a pleiotropic cytokine", "values": [{"measurement": "PI3K activity", "setting": "PI3K; PC-3, DU145 cells, 50 μg/ml IL-6 for 30 min", "value": "increase PI3K activity"}, {"measurement": "Effect of IL-6 on AR transactivation (CAT activity)", "setting": "AR transactivation [4]; MAPK pathway inhibited by 20 μM P098059 30 min prior to IL-6", "value": "repress AR transactivation"}, {"measurement": "Effect of IL-6 on AR transactivation (CAT activity)", "setting": "AR transactivation [4]; PI3K pathway inhibited by 20 μM LY294002 30 min prior to IL-6", "value": "enhance AR transactivation"}, {"measurement": "Effect of IL-6 on AR transactivation (CAT activity)", "setting": "AR transactivation [4]; none of the MAPK and PI3K pathways blocked, DHT 24 h", "value": "very limited effect"}]}, {"molecule": "PTEN-PTP: PTEN peptide (aa, 110-163) containing the phosphatase domain (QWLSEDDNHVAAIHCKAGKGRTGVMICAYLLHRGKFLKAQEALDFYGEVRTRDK; left off: a dimerising Fc or GST)", "values": [{"measurement": "Effect on AR transactivation", "setting": "AR transactivation [5]", "value": "suppress of AR transactivation"}, {"measurement": "AR degradation", "setting": "AR protein levels", "value": "promote AR degradation"}]}]}
